Like-named read-outs stand apart in the source and are kept apart here.
Target: T1, MRGPRX4 (Homo sapiens, UniProt Q96LA9)
T1 construct: expressed in transfected cells; host or cells: HEK293T
Assay: IP1 accumulation HTRF assay, MRGPRX4;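 for IP1 accumulation, dose-response (Figure 1a): 0% is unstimulated mock-transfected cells and 100% is fully stimulated MRGPRX4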
Assay type: cell-based
Conditions: 2 h; for activation at 16 µM: log [agonist] (M) -4.79588; for activation at 3.2 µM: log [agonist] (M) -5.49485; for activation at 0.64 µM: log [agonist] (M) -6.19382; for activation at 0.128 µM: log [agonist] (M) -6.89279; for activation at 0.0256 µM: log [agonist] (M) -7.59176

[1] = SP-FLAG-Nluc-HT7-MRGX4_Tet-GFP10-1D4, read-out: normalized IP1 accumulation
[2] = SP-FLAG-Nluc-HT7-MRGX4_Tet-GFP10-1D4 no dox, read-out: normalized IP1 accumulation

T1 sequence (Q96LA9 whole entry): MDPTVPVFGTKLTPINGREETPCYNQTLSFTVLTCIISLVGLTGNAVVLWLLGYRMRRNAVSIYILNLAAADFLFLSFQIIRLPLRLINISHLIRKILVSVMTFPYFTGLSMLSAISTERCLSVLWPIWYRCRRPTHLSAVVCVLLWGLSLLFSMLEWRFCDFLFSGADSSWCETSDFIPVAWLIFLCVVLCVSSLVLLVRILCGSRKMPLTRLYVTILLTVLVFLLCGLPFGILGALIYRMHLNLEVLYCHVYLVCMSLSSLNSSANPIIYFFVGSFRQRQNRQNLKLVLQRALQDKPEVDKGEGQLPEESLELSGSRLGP

`CC(C)[C@H]1CC[C@H](C(=O)N[C@H](Cc2ccccc2)C(=O)O)CC1` [Nateglinide] was tested, and the activation at 100 µM (HA-MRGX4-1D4, log [agonist] (M) -4, read-out: normalized IP1 accumulation) was 84.6%, the activation at 20 µM (HA-MRGX4-1D4, log [agonist] (M) -4.69897, read-out: normalized IP1 accumulation) was 63.4% and the activation at 4 µM (HA-MRGX4-1D4, log [agonist] (M) -5.39794, read-out: normalized IP1 accumulation) was 30.8%. For the same molecule, the activation at 0.8 µM (HA-MRGX4-1D4, log [agonist] (M) -6.09691, read-out: normalized IP1 accumulation) was 17.7%, the activation at […] (HA-MRGX4-1D4, log [agonist] (M) -6.79588, read-out: normalized IP1 accumulation) was 12.4% and the activation at 0.032 µM (HA-MRGX4-1D4, log [agonist] (M) -7.49485, read-out: normalized IP1 accumulation) was 12.5%. For the same molecule, the activation at 100 µM (MRGPRX4: 0.25pg/cell, log [Nateglinide] (M) -4, Fig S1b, read-out: IP1 accumulation) was 76.9%, the activation at 20 µM (MRGPRX4: 0.25pg/cell, log [Nateglinide] (M) -4.69897, Fig S1b, read-out: IP1 accumulation) was 53.7% and the activation at 4 µM (MRGPRX4: 0.25pg/cell, log [Nateglinide] (M) -5.39794, Fig S1b, read-out: IP1 accumulation) was 21.2%. For the same molecule, the activation at […] (MRGPRX4: 0.25pg/cell, log [Nateglinide] (M) -6.79588, Fig S1b, read-out: IP1 accumulation) was 3.43%, the activation at 0.032 µM (MRGPRX4: 0.25pg/cell, log [Nateglinide] (M) -7.49485, Fig S1b, read-out: IP1 accumulation) was 3.78% and the activation at 100 µM (MRGPRX4: 0.5pg/cell, log [Nateglinide] (M) -4, Fig S1b, read-out: IP1 accumulation) was 92.5%. For the same molecule, the activation at 20 µM (MRGPRX4: 0.5pg/cell, log [Nateglinide] (M) -4.69897, Fig S1b, read-out: IP1 accumulation) was 65.9%, the activation at 4 µM (MRGPRX4: 0.5pg/cell, log [Nateglinide] (M) -5.39794, Fig S1b, read-out: IP1 accumulation) was 33% and the activation at 0.8 µM (MRGPRX4: 0.5pg/cell, log [Nateglinide] (M) -6.09691, Fig S1b, read-out: IP1 accumulation) was 11.8%. The activation at […] (MRGPRX4: 0.5pg/cell, log [Nateglinide] (M) -6.79588, Fig S1b, read-out: IP1 accumulation) was 6.22%, the activation at 0.032 µM (MRGPRX4: 0.5pg/cell, log [Nateglinide] (M) -7.49485, Fig S1b, read-out: IP1 accumulation) was 5.53% and the activation at 100 µM (MRGPRX4: 1pg/cell, log [Nateglinide] (M) -4, Fig S1b, read-out: IP1 accumulation) was 92.1%. For the same molecule, the activation at 20 µM (MRGPRX4: 1pg/cell, log [Nateglinide] (M) -4.69897, Fig S1b, read-out: IP1 accumulation) was 75.4%, the activation at 4 µM (MRGPRX4: 1pg/cell, log [Nateglinide] (M) -5.39794, Fig S1b, read-out: IP1 accumulation) was 37.9% and the activation at 0.8 µM (MRGPRX4: 1pg/cell, log [Nateglinide] (M) -6.09691, Fig S1b, read-out: IP1 accumulation) was 17.7%. The activation at […] (MRGPRX4: 1pg/cell, log [Nateglinide] (M) -6.79588, Fig S1b, read-out: IP1 accumulation) was 11.7%, the activation at 0.032 µM (MRGPRX4: 1pg/cell, log [Nateglinide] (M) -7.49485, Fig S1b, read-out: IP1 accumulation) was 9.46% and the activation at 100 µM (MRGPRX4: 2pg/cell, log [Nateglinide] (M) -4, Fig S1b/c, read-out: IP1 accumulation) was 100%. For the same molecule, the activation at 20 µM (MRGPRX4: 2pg/cell, log [Nateglinide] (M) -4.69897, Fig S1b/c, read-out: IP1 accumulation) was 88.5%, the activation at 4 µM (MRGPRX4: 2pg/cell, log [Nateglinide] (M) -5.39794, Fig S1b/c, read-out: IP1 accumulation) was 44.1% and the activation at 0.8 µM (MRGPRX4: 2pg/cell, log [Nateglinide] (M) -6.09691, Fig S1b/c, read-out: IP1 accumulation) was 21.4%. The activation at […] (MRGPRX4: 2pg/cell, log [Nateglinide] (M) -6.79588, Fig S1b/c, read-out: IP1 accumulation) was 13.8%, the activation at 0.032 µM (MRGPRX4: 2pg/cell, log [Nateglinide] (M) -7.49485, Fig S1b/c, read-out: IP1 accumulation) was 12.6% and the activation at 100 µM (MRGPRX4: […], log [Nateglinide] (M) -4, Fig S1b, read-out: IP1 accumulation) was 68.7%. For the same molecule, the activation at 20 µM (MRGPRX4: […], log [Nateglinide] (M) -4.69897, Fig S1b, read-out: IP1 accumulation) was 45%, the activation at 4 µM (MRGPRX4: […], log [Nateglinide] (M) -5.39794, Fig S1b, read-out: IP1 accumulation) was 17.6% and the activation at 0.8 µM (MRGPRX4: […], log [Nateglinide] (M) -6.09691, Fig S1b, read-out: IP1 accumulation) was 5.45%. The activation at 0.032 µM (MRGPRX4: […], log [Nateglinide] (M) -7.49485, Fig S1b, read-out: IP1 accumulation) was 2.09%, the activation at 30 µM (MRGPRX4, nateglinide 30uM, Fig S1d) was 86.4% and the activation at 100 µM (MRGPRX4, nateglinide 100uM, Fig S1d, read-out: IP1 accumulation) was 100%. The activation at 100 µM (MRGPRX4 alone, log [Nateglinide] (M) -4, Fig S3a-c, read-out: IP1 accumulation) was 100%, the activation at 20 µM (MRGPRX4 alone, log [Nateglinide] (M) -4.69897, Fig S3a-c, read-out: IP1 accumulation) was 85.7% and the activation at 4 µM (MRGPRX4 alone, log [Nateglinide] (M) -5.39794, Fig S3a-c, read-out: IP1 accumulation) was 46.2%. The activation at 0.8 µM (MRGPRX4 alone, log [Nateglinide] (M) -6.09691, Fig S3a-c, read-out: IP1 accumulation) was 23%, the activation at […] (MRGPRX4 alone, log [Nateglinide] (M) -6.79588, Fig S3a-c, read-out: IP1 accumulation) was 17.8% and the activation at 0.032 µM (MRGPRX4 alone, log [Nateglinide] (M) -7.49485, Fig S3a-c, read-out: IP1 accumulation) was 17.4%. For the same molecule, the activation at 30 µM (MRGX4 + Ng, 30uM, U73122 30uM, Fig S1e) was 21.3%, the activation at 30 µM (MRGX4 + Ng, 30uM, buffer, Fig S1e) was 84.5% and the activation at 100 µM (MRGX4 + Ng, 100uM, U73122 30uM, Fig S1e, read-out: IP1 accumulation) was 31%. For the same molecule, the activation at 100 µM (MRGX4 + Ng, 100uM, buffer, Fig S1e, read-out: IP1 accumulation) was 100%, the activation at 80 µM (SP-FLAG-Nluc-HT7-MRGX4_Tet-GFP10-1D4, log [agonist] (M) -4.09691, read-out: normalized IP1 accumulation) was 49.1% and the activation at 16 µM [1] was 42%. It also gave an activation at 3.2 µM [1] of 23.5%, an activation at 0.64 µM [1] of 12.9% and an activation at 0.128 µM [1] of 10.3%. The activation at 0.0256 µM [1] was 9.54%, the activation at 16 µM [2] was 10.5% and the activation at 3.2 µM [2] was 7.88%. For the same molecule, the activation at 0.64 µM [2] was 7.83%, the activation at 0.128 µM [2] was 7.62% and the activation at 0.0256 µM [2] was 8.15%. It also gave an activation at 100 µM (SP-Flag-MRGX4-1D4, log [agonist] (M) -4, read-out: normalized IP1 accumulation) of 85.6%, an activation at 20 µM (SP-Flag-MRGX4-1D4, log [agonist] (M) -4.69897, read-out: normalized IP1 accumulation) of 66.9% and an activation at 4 µM (SP-Flag-MRGX4-1D4, log [agonist] (M) -5.39794, read-out: normalized IP1 accumulation) of 28.3%. It also gave an activation at 0.8 µM (SP-Flag-MRGX4-1D4, log [agonist] (M) -6.09691, read-out: normalized IP1 accumulation) of 11.8%, an activation at […] (SP-Flag-MRGX4-1D4, log [agonist] (M) -6.79588, read-out: normalized IP1 accumulation) of 7.74% and an activation at 0.032 µM (SP-Flag-MRGX4-1D4, log [agonist] (M) -7.49485, read-out: normalized IP1 accumulation) of 8.22%. For the same molecule, the activation at 100 µM (SP-Flag-MRGX4-GFP10-1D4, log [agonist] (M) -4, read-out: normalized IP1 accumulation) was 100%, the activation at 20 µM (SP-Flag-MRGX4-GFP10-1D4, log [agonist] (M) -4.69897, read-out: normalized IP1 accumulation) was 74% and the activation at 4 µM (SP-Flag-MRGX4-GFP10-1D4, log [agonist] (M) -5.39794, read-out: normalized IP1 accumulation) was 34.7%. The activation at 0.8 µM (SP-Flag-MRGX4-GFP10-1D4, log [agonist] (M) -6.09691, read-out: normalized IP1 accumulation) was 13.4%, the activation at […] (SP-Flag-MRGX4-GFP10-1D4, log [agonist] (M) -6.79588, read-out: normalized IP1 accumulation) was 8.46% and the activation at 0.032 µM (SP-Flag-MRGX4-GFP10-1D4, log [agonist] (M) -7.49485, read-out: normalized IP1 accumulation) was 8.07%. It also gave an activation at 3.7037 µM (log [agonist] (M) -5.43136, MRGX4-transfected, individual replicates, read-out: IP1 accumulation, dose-response (Figure 1a)) of 40%, an activation at 0.4115 µM (log [agonist] (M) -6.38561, MRGX4-transfected, individual replicates, read-out: IP1 accumulation, dose-response (Figure 1a)) of 19.1% and an activation at 100 µM (log [nateglinide] (M) -4, Dox 13 ng/mL, Supplementary Figure 5a, read-out: IP1 accumulation (normalized)) of 79.6%. For the same molecule, the activation at 100 µM (log [nateglinide] (M) -4, Dox 13 ng/mL, Supplementary Figure 5b, read-out: IP1 accumulation (normalized)) was 13.6%, the activation at 100 µM (log [nateglinide] (M) -4, Dox 13 ng/mL, Supplementary Figure 5c, read-out: IP1 accumulation (normalized)) was 46.6% and the activation at 100 µM (log [nateglinide] (M) -4, Dox 40 ng/mL, Supplementary Figure 5a, read-out: IP1 accumulation (normalized)) was 82.2%.
